Where “and” joins values, the source holds several entries; their conditions need not be identical. Equal entries are not always repeated. Toxic doses and inconclusive results are not listed.

The test concerns L1210 leukemia ip in BDF1 mice, survival T/C. Description: NCI In Vivo Anticancer Drug Screen. Data for tumor model L1210 Leukemia (intraperitoneal) in B6D2F1 (BDF1) mice. As to conditions: endpoint: mean survival time, higher = longer survival. The method in brief: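 Each compound was tested against a transplantable tumor grown in mice. The endpoint was survival, with treated animals benchmarked against vehicle controls as a simple ratio.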

The mark [1] stands for this setting: dose: 50.0 mg/kg/injection, schedule: Q01DX001 (ip), vehicle: carboxymethylcellulose (CMC).
The mark [2] stands for this setting: dose: 100.0 mg/kg/injection, schedule: Q01DX001 (ip), vehicle: carboxymethylcellulose (CMC).
Where [3] appears, read: dose: 200.0 mg/kg/injection, schedule: Q01DX001 (ip), vehicle: carboxymethylcellulose (CMC).
The mark [4] stands for this setting: dose: 400.0 mg/kg/injection, schedule: Q01DX001 (ip), vehicle: carboxymethylcellulose (CMC).
The mark [5] stands for this setting: dose: 100.0 mg/kg/injection, schedule: Q01DX009 (ip), vehicle: Klucel (hydroxypropylcellulose) (HPC).
Setting [6] is: dose: 100.0 mg/kg/injection, schedule: Q04DX003 (ip), vehicle: Klucel (hydroxypropylcellulose) (HPC).
Setting [7] is: dose: 200.0 mg/kg/injection, schedule: Q01DX009 (ip), vehicle: Klucel (hydroxypropylcellulose) (HPC).
[8] abbreviates: dose: 200.0 mg/kg/injection, schedule: Q04DX003 (ip), vehicle: Klucel (hydroxypropylcellulose) (HPC).
Setting [9] is: dose: 50.0 mg/kg/injection, schedule: Q01DX001 (ip), vehicle: saline.
Setting [10] is: dose: 100.0 mg/kg/injection, schedule: Q01DX001 (ip), vehicle: saline.
Setting [11] is: dose: 400.0 mg/kg/injection, schedule: Q01DX009 (ip), vehicle: Klucel (hydroxypropylcellulose) (HPC).
Where [12] appears, read: dose: 400.0 mg/kg/injection, schedule: Q04DX003 (ip), vehicle: Klucel (hydroxypropylcellulose) (HPC).

In the case of `N#C/C(=N\Nc1ccc(S(=O)(=O)O)cc1)C(N)=O`, the T/C reads like this: (dose: 100.0 mg/kg/injection, schedule: Q04DX003 (ip), vehicle: saline) 104 % of control; (dose: 200.0 mg/kg/injection, schedule: Q04DX003 (ip), vehicle: saline) 100 % of control; (dose: 400.0 mg/kg/injection, schedule: Q04DX003 (ip), vehicle: saline) 98 % of control.

On to `Cc1cc(C)c(C(=O)N/N=C/c2ccc(N(CCCl)CCCl)cc2)c(=O)[nH]1`, for which the T/C was 97 % of control under setting [1], 100 % of control under setting [2], 103 % of control under setting [3] and 92 % of control under setting [4].

As for `CCOC(=O)C1(NC(=O)N(CCCl)N=O)CCCC1`, the T/C by setting is: (dose: 16.0 mg/kg/injection, schedule: Q01DX001 (ip), vehicle: other) 105 % of control; (dose: 31.0 mg/kg/injection, schedule: Q01DX001 (ip), vehicle: other) 110 % of control; (dose: 108.0 mg/kg/injection, schedule: Q01DX001 (ip), vehicle: other) 178 % of control; (dose: 110.0 mg/kg/injection, schedule: Q01DX001 (ip), vehicle: other) 185 % of control; (dose: 125.0 mg/kg/injection, schedule: Q01DX001 (ip), vehicle: other) 217 % of control; (dose: 165.0 mg/kg/injection, schedule: Q01DX001 (ip), vehicle: other) 236 % of control. In addition, the T/C (dose: 168.0 mg/kg/injection, schedule: Q01DX001 (ip), vehicle: other) is 262 % of control; the T/C (dose: 247.0 mg/kg/injection, schedule: Q01DX001 (ip), vehicle: other) was 272 % of control; the T/C (dose: 250.0 mg/kg/injection, schedule: Q01DX001 (ip), vehicle: other) was 278 % of control and 314 % of control; the T/C (dose: 370.0 mg/kg/injection, schedule: Q01DX001 (ip), vehicle: other) was 250 % of control; the T/C (dose: 375.0 mg/kg/injection, schedule: Q01DX001 (ip), vehicle: other) is 115 % of control; the T/C (dose: 555.0 mg/kg/injection, schedule: Q01DX001 (ip), vehicle: other) was 94 % of control.

Consider `CCCC(C)C(=NC)Nc1ccc(Cl)c(Cl)c1` (stereo not drawn), for which the T/C (dose: 11.1 mg/kg/injection, schedule: Q01DX Z (ip), vehicle: methylcellulose (MC)) is 91 % of control and the T/C (dose: 16.6 mg/kg/injection, schedule: Q01DX Z (ip), vehicle: methylcellulose (MC)) was 95 % of control.

`CC(=O)OCCS(=O)(=O)CCc1ccccc1`: the T/C runs as follows: (dose: 62.5 mg/kg/injection, schedule: Q01DX009 (ip), vehicle: Klucel (hydroxypropylcellulose) (HPC)) 96 % of control; (dose: 125.0 mg/kg/injection, schedule: Q01DX009 (ip), vehicle: Klucel (hydroxypropylcellulose) (HPC)) 100 % of control; (dose: 250.0 mg/kg/injection, schedule: Q01DX009 (ip), vehicle: Klucel (hydroxypropylcellulose) (HPC)) 98 % of control.

`Cc1cc([N+](=O)[O-])ccc1NS(=O)(=O)c1ccccc1`: the T/C is 92 % of control (dose: 50.0 mg/kg/injection, schedule: Q01DX009 (ip), vehicle: Klucel (hydroxypropylcellulose) (HPC)); 95 % of control under setting [5]; 102 % of control under setting [6]; 95 % of control under setting [7]; 97 % of control under setting [8].

Take `BrCCCC[P+](c1ccccc1)(c1ccccc1)c1ccccc1`: the T/C (dose: 12.5 mg/kg/injection, schedule: Q04DX003 (ip), vehicle: Klucel (hydroxypropylcellulose) (HPC)) was 95 % of control; the T/C (dose: 25.0 mg/kg/injection, schedule: Q04DX003 (ip), vehicle: Klucel (hydroxypropylcellulose) (HPC)) was 106 % of control; the T/C under setting [9] is 107 % of control; the T/C (dose: 50.0 mg/kg/injection, schedule: Q04DX003 (ip), vehicle: Klucel (hydroxypropylcellulose) (HPC)) is 98 % of control; the T/C under setting [10] is 110 % of control.

`O=C1c2ccccc2C(=O)N1c1cc([N+](=O)[O-])cc([N+](=O)[O-])c1O`: the T/C (dose: 100.0 mg/kg/injection, schedule: Q01DX001 (ip), vehicle: Klucel (hydroxypropylcellulose) (HPC)) is 98 % of control; the T/C (dose: 200.0 mg/kg/injection, schedule: Q01DX001 (ip), vehicle: Klucel (hydroxypropylcellulose) (HPC)) is 95 % of control; the T/C (dose: 400.0 mg/kg/injection, schedule: Q01DX001 (ip), vehicle: Klucel (hydroxypropylcellulose) (HPC)) is 88 % of control.

As to `BrCCOCCBr`, the T/C was 97 % of control (dose: 25.0 mg/kg/injection, schedule: Q01DX009 (ip), vehicle: other); 92 % of control (dose: 50.0 mg/kg/injection, schedule: Q01DX009 (ip), vehicle: other); 95 % of control (dose: 100.0 mg/kg/injection, schedule: Q01DX009 (ip), vehicle: other).

`C/C=C\c1ccc(OC(=O)Nc2ccc(Cl)cc2)c(OC)c1`: the T/C is, setting by setting: (dose: 100.0 mg/kg/injection, schedule: Q04DX002 (ip), vehicle: saline with Tween-80) 100 % of control; (dose: 200.0 mg/kg/injection, schedule: Q04DX002 (ip), vehicle: saline with Tween-80) 100 % of control; (dose: 400.0 mg/kg/injection, schedule: Q04DX002 (ip), vehicle: saline with Tween-80) 96 % of control.

As for `COc1ccc(Cc2nc(-c3ccc(N=Cc4ccc(N(CCCl)CCCl)cc4)cc3)cs2)cc1`, the T/C was 88 % of control under setting [1], 92 % of control under setting [2], 97 % of control under setting [3] and 94 % of control under setting [4].

For the compound `Nc1nc(N)c(C=O)c(Nc2ccc(I)cc2)n1`, the T/C reads like this: under setting [9], 100 % of control; under setting [10], 100 % of control; (dose: 200.0 mg/kg/injection, schedule: Q01DX001 (ip), vehicle: saline) 123 % of control; (dose: 400.0 mg/kg/injection, schedule: Q01DX001 (ip), vehicle: saline) 117 % of control.

As to `NC(=S)N/N=C\c1[nH]c(=O)nc2ccccc12`, the T/C by setting is: under setting [5], 98 % of control; under setting [6], 103 % of control; under setting [7], 92 % of control; under setting [8], 100 % of control; under setting [11], 95 % of control; under setting [12], 97 % of control.

Turning to `CC/C(=C(\CC)c1ccc(OCC(=O)N2CC2)cc1)c1ccc(OCC(=O)N2CC2)cc1`, the T/C by setting is: (dose: 2.5 mg/kg/injection, schedule: Q04DX002 (ip), vehicle: saline) 101 % of control; (dose: 5.0 mg/kg/injection, schedule: Q04DX002 (ip), vehicle: saline) 101 % of control; (dose: 10.0 mg/kg/injection, schedule: Q04DX002 (ip), vehicle: saline) 105 % of control.

`CC(=O)/C=C\c1ccc([N+](=O)[O-])o1`: the T/C runs as follows: (dose: 100.0 mg/kg/injection, schedule: Q04DX002 (ip), vehicle: Klucel (hydroxypropylcellulose) (HPC)) 115 % of control; (dose: 200.0 mg/kg/injection, schedule: Q04DX002 (ip), vehicle: Klucel (hydroxypropylcellulose) (HPC)) 89 % of control.

Regarding `CCCCCCCCCCCCCCS`, the T/C was 116 % of control (dose: 200.0 mg/kg/injection, schedule: Q01DX Z (ip), vehicle: methylcellulose (MC)); 108 % of control (dose: 225.0 mg/kg/injection, schedule: Q01DX Z (ip), vehicle: methylcellulose (MC)); 104 % of control (dose: 450.0 mg/kg/injection, schedule: Q01DX Z (ip), vehicle: methylcellulose (MC)); 103 % of control (dose: 675.0 mg/kg/injection, schedule: Q01DX Z (ip), vehicle: methylcellulose (MC)).

`O=C(Cc1ccccc1)OCC#CC#CCOC(=O)Cc1ccccc1`: the T/C is, setting by setting: under setting [5], 103 % of control; under setting [6], 92 % of control; under setting [7], 98 % of control; under setting [8], 91 % of control; under setting [11], 97 % of control; under setting [12], 92 % of control.

Consider `CC[As](=O)(O)c1ccc([N+](=O)[O-])cc1`, for which, for the setting “dose: 100.0 mg/kg/injection, schedule: Q01DX001 (ip), vehicle: saline with Tween-80”, the T/C was 101 % of control.

Values taken from PubChem BioAssay AID248 (DTP/NCI, 2004).
